The text below walks through data of patent US10508077B2 (FORMA Therapeutics, Inc., priority 2015, dated 2019).

Molecules are shown by their SMILES.

For the test, the target named is T1, Full length human recombinant HDAC8 protein (Homo sapiens, UniProt Q9BY41).
T1 construct: Full length human recombinant HDAC8 protein was expressed in baculoviral system; made in house
T1 sequence (Q9BY41 1-377): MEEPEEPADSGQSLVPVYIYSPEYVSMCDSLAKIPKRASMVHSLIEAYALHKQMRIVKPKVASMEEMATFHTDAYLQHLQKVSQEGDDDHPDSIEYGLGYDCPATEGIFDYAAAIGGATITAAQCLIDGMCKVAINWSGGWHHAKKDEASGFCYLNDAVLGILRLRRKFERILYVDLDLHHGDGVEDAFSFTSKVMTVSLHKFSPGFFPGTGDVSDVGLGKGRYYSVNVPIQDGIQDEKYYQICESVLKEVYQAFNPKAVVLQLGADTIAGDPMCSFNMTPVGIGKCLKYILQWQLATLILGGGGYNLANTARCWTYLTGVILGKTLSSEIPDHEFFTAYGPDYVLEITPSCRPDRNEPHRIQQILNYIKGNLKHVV
The test can be described thus: In vitro histone deacetylase assay: enzymatic HDAC8 assay, electrophoretic mobility shift. In kind it is biochemical. The following applies: substrate RHKK(Ac)-NH2, 1 nM enzyme, compounds listed under IC50 range headings. As to the method: The enzymatic HDAC8 assay was performed using electrophoretic mobility shift assay. Full length human recombinant HDAC8 protein was expressed in baculoviral system and purified by affinity chromatography. The enzymatic reactions were assembled in 384 well plates in a total volume of 25 μL in a reaction buffer composing: 100 mM HEPES, pH7.5, 25 mM KC, 0.1% bovine serum albumin, 0.01% Triton X-100, 1% DMSO (from compounds) 2 μM of the fluorescently labeled peptide substrate and enzyme. The enzyme was added at a final concentration of 1 nM. The peptide substrate RHKK(Ac)-NH2 was used. The compounds were tested at 12 concentrations spaced by 3× dilution intervals. Negative control samples (0%-inhibition in the absence of inhibitor) and positive control samples (100%-inhibition) were assembled in replicates of four in each assay plate. The reactions were incubated at 25° C. and quenched by the addition of 45 μL of termination buffer (100 mM HEPES, pH 7.5, 0.01% Triton X-100, 0.05% SDS).
The terminated assay plates were analyzed on LabChip® 3000 microfluidic electrophoresis instrument (Perkin Elmer/Caliper Life Sciences). The fluorescence intensity of the electrophoretically separated de-acetylated product and substrate peptide was measured. Activity in each sample was determined as the product to sum ratio (PSR): P/(S+P), where P is the peak height of the product peptide and S is the peak height of the substrate peptide. Percent inhibition (Pinh) is determined using the following equation: Pinh=(PSR0%−PSRinh)/(PSR0%−PSR100%)*100, where PSRinh is the product sum ratio in the presence of inhibitor, PSR0% is the average product sum ration in the absence of inhibitor and PSR 100% is the average product sum ratio in 100%-inhibition control samples. The IC50 values of inhibitors were determined by fitting the %-inhibition curves with 4 parameter dose-response model using XLfit 4 software. Ranges of IC50 values for compounds of the invention are disclosed in Table 26.
A general note: A gel shift assay detects complexes by their altered migration in electrophoresis.

Broadly, the IC50 is the concentration at which inhibition is half-maximal. For `O=C(/C=C/c1ccccc1Nc1nc2ccccc2[nH]1)NO` [Example I-1, (E)-3-(2-((1H-benzo[d]imidazol-2-yl)amino)phenyl)-N-hydroxyacrylamide], the IC50 lay in the range of 1 to 10 µM.
For `COCCn1c(CNc2ccccc2/C=C/C(=O)NO)nc2ccccc21` [Example I-2, (E)-N-hydroxy-3-(2-(((1-(2-methoxyethyl)-1H-benzo[d]imidazol-2-yl)methyl)amino)phenyl)acrylamide], the IC50 was in the range of 1 to 10 µM.
The result for `COCCn1c(Nc2ccccc2/C=C/C(=O)NO)nc2ccccc21` [Example I-3, (E)-N-hydroxy-3-(2-((1-(2-methoxyethyl)-1H-benzo[d]imidazol-2-yl)amino)phenyl)acrylamide] reads 1 to 10 µM; that for `O=C(/C=C/c1ccccc1NCc1nc2ccc(C(F)(F)F)cc2[nH]1)NO` [Example I-4, (E)-N-hydroxy-3-(2-(((6-(trifluoromethyl)-1H-benzo[d]imidazol-2-yl)methyl)amino)phenyl)acrylamide], 1 to 10 µM.
Turning to `O=C(/C=C/c1ccccc1NC(=O)Nc1cccc(C(F)(F)F)c1)NO` [Example I-5, (E)-N-hydroxy-3-(2-(3-(3-(trifluoromethyl)phenyl)ureido)phenyl)acrylamide], the IC50 lay within 1 to 10 µM.
For `O=C(/C=C/c1ccccc1NC(=O)C1(O)CCC1)NO` [Example I-6, (E)-1-hydroxy-N-(2-(3-(hydroxyamino)-3-oxoprop-1-en-1-yl)phenyl)cycobutane-1-carboxamide] the value was 1 to 10 µM.
The result for `O=C(/C=C/c1ccccc1NS(=O)(=O)c1cccc(C(F)(F)F)c1)NO` [Example I-7, (E)-N-hydroxy-3-(2-(3-(trifluoromethyl)phenylsulfonamido)phenyl)acrylamide] reads 1 to 10 µM; that for `NC1CCN(c2ccccc2/C=C/C(=O)NO)CC1` [Example I-8, (E)-3-(2-(4-aminopiperidin-1-yl)phenyl)-N-hydroxyacrylamide 2,2,2-trifluoroacetate], 1 to 10 µM.
Consider `COc1ccc(CC(=O)NC2CCN(c3ccccc3/C=C/C(=O)NO)CC2)cc1` [Example I-9, (E)-N-hydroxy-3-(2-(4-(2-(4-methoxyphenyl)acetami-do)piperidin-1-yl)phenyl)acrylamide], for which the IC50 fell in the range of 1 to 10 µM.
The result for `O=C(/C=C/c1ccccc1N1CCC(NC(=O)COc2ccc(Cl)cc2)CC1)NO` [Example I-10, (E)-3-(2-(4-(2-(4-chlorophenoxy)acetami-do)piperidin-1-yl)phenyl)-N-hydroxyacrylamide] reads 1 to 10 µM; that for `O=C(/C=C/c1ccccc1N1CCC(NC(=O)c2ccc3cccnc3n2)CC1)NO` [Example I-11, (E)-N-(1-(2-(3-(hydroxyamino)-3-oxoprop-1-en-1-yl)phenyl)piperidin-4-yl)-1,8-naphthyridine-2-carboxamide], 1 to 10 µM; that for `CN1CC(C(=O)NC2CCN(c3ccccc3/C=C/C(=O)NO)CC2)C1` [Example I-12, (E)-N-(1-(2-(3-(hydroxyamino)-3-oxoprop-1-en-1-yl)phenyl)piperidin-4-yl)-1-methylazetidine-3-carboxamide], 1 to 10 µM.
For `O=C(/C=C/c1ccccc1N1CCC(NC(=O)Cc2ccc(Cl)cc2)CC1)NO` [Example I-13, (E)-3-(2-(4-(2-(4-chlorophenyl)acetamido)piperidin-1-yl)phenyl)-N-hydroxyacrylamide] the value was 1 to 10 µM; for `Cc1cccc(C(=O)NC2CCN(c3ccccc3/C=C/C(=O)NO)CC2)c1` [Example I-14], 1 to 10 µM; for `Cc1oc(-c2ccc(Cl)cc2)cc1C(=O)NC1CCN(c2ccccc2/C=C/C(=O)NO)CC1` [Example I-15], 1 to 10 µM.
Take `Cc1c(C(=O)NC2CCN(c3ccccc3/C=C/C(=O)NO)CC2)cnn1-c1ccccc1` [Example I-16]: the half-inhibitory concentration (IC50) lay within 1 to 10 µM.
Turning to `CN(C)Cc1ccccc1CNC1CCN(c2ccccc2C=CC(=O)NO)CC1` [Example I-17, (E)-3-(2-(4-((2-((dimethylamino)methyl)benzyl)amino)piperidin-1-yl)phenyl-N-hydroxyacrylamide], the IC50 lay within 1 to 10 µM.
`CN(C)Cc1cccc(CNC2CCN(c3ccccc3/C=C/C(=O)NO)CC2)c1` [Example I-18, (E)-3-(2-(4-((3-((dimethylamino)methyl)benzyl)amino)piperidin-1-yl)phenyl)-N-hydroxyacrylamide]: the IC50 lay in the range of 1 to 10 µM.
For `O=C(/C=C/c1ccccc1N1CCN(C(=O)C2CCCO2)CC1)NO` (stereo not drawn) [Example I-19, (E)-N-hydroxy-3-(2-(4-(tetrahydrofuran-2-carbonyl)piperazin-1-yl)phenyl)acrylamide] the value was 1 to 10 µM; for `O=C(/C=C/c1ccccc1N1CCN(C(=O)C2Cc3ccccc3C2)CC1)NO` [Example I-20, (E)-3-(2-(4-(2,3-dihydro-1H-indene-2-carbonyl)-piperazin-1-yl)phenyl)-N-hydroxyacrylamide], 1 to 10 µM; for `COCC1(C(=O)N2CCN(c3ccccc3/C=C/C(=O)NO)CC2)CCC1` [Example I-21, (E)-N-hydroxy-3-(2-(4-(1-(methoxymethyl)cyclobu-tane-1-carbonyl)piperazin-1-yl)phenyl)acrylamide], 1 to 10 µM.
Turning to `O=C(/C=C/c1ccccc1N1CCN(C(=O)c2cc3ccccn3n2)CC1)NO` [Example I-22, (E)-N-hydroxy-3-(2-(4-(pyrazolo[1,5-a]pyridine-2-carbonyl)piperazin-1-yl)phenyl)acrylamide], the half-inhibitory concentration (IC50) was in the range of 1 to 10 µM.
The result for `O=C(/C=C/c1ccccc1N1CCN(C(=O)C2CCC(F)(F)CC2)CC1)NO` [Example I-23] reads 1 to 10 µM; that for `O=C(/C=C/c1ccccc1N1CCN(C(=O)CC23CCCN2CCC3)CC1)NO` [Example I-24, (E)-N-hydroxy-3-(2-(4-(2-(tetrahydro-1H-pyrrolizin-7a(5H)-yl)acetyl)piperazin-1-yl)phenyl)acrylamide], 1 to 10 µM; that for `O=C(/C=C/c1ccccc1N1CCN(C(=O)c2cc3ccccc3[nH]2)CC1)NO` [Example I-25, (E)-3-(2-(4-(1H-indole-2-carbonyl)piperazin-1-yl)phenyl)-N-hydroxyacrylamide], 1 to 10 µM.
For `CC(C)S(=O)(=O)NC1CCN(c2ccccc2/C=C/C(=O)NO)CC1` [Example I-26] the value was 1 to 10 µM; for `O=C(/C=C/c1ccccc1N1CCC(NS(=O)(=O)C2CCCC2)CC1)NO` [Example I-27, (E)-3-(2-(4-(cyclopentanesulfonamido)piperidin-1-yl)phenyl)-N-hydroxyacrylamide], 1 to 10 µM; for `O=C(/C=C/c1ccccc1N1CCN(S(=O)(=O)c2ccc3c(c2)OCCO3)CC1)NO` [Example I-28, (E)-3-(2-(4-((2,3-dihydrobenzo[b][1,4]di-oxin-6-yl)sulfonyl)piperazin-1-yl)phenyl)-N-hydroxyacrylamide], 1 to 10 µM.
Take `O=C(/C=C/c1ccccc1N1CCN(S(=O)(=O)c2ccccc2OC(F)(F)F)CC1)NO` [Example I-29, (E)-N-hydroxy-3-(2-(4-((2-(trifluoromethoxy)phenyl)sulfonyl)piperazin-1-yl)phenyl)acrylamide]: the IC50 fell in the range of 1 to 10 µM.
The result for `O=C(/C=C/c1ccccc1N1CCN(S(=O)(=O)c2ccc(OC(F)F)cc2)CC1)NO` [Example I-30, (E)-3-(2-(4-((4-(difluoromethoxy)phenyl)sulfonyl)piperazin-1-yl)phenyl)-N-hydroxyacrylamide] reads 1 to 10 µM; that for `COc1ccccc1S(=O)(=O)N1CCN(c2ccccc2/C=C/C(=O)NO)CC1` [Example I-31, (E)-N-hydroxy-3-(2-(4-((2-methoxyphenyl)sulfonyl)piperazin-1-yl)phenyl)acrylamide], 1 to 10 µM.
Regarding `O=C(/C=C/c1ccccc1N1CCN(S(=O)(=O)c2ccc(CNC(=O)c3ccccc3)s2)CC1)NO` [Example I-32, (E)-N-((5-((4-(2-(3-(hydroxyamino)-3-oxoprop-1-en-1-yl)phenyl)piperazin-1-yl)sulfonyl)thiophen-2-yl)methyl)benzamide], the IC50 was in the range of 1 to 10 µM.
The result for `Cc1c(S(=O)(=O)N2CCN(c3ccccc3/C=C/C(=O)NO)CC2)sc2ccc(Cl)cc12` [Example I-33, (E)-3-(2-(4-((5-chloro-3-methylbenzo[b]thiophen-2-yl)sulfonyl)piperazin-1-yl)phenyl)-N-hydroxyacrylamide] reads 1 to 10 µM.
